For experiment [1], the system named is TF1 JAK2 V617F STAT5 reporter. Nature of the experiment: Cellular TF1 STAT5 assay (luciferase reporter), JAK2 V617F. In kind it is cell-based. Conditions: read-out: Cell PD TF1 V617F STAT5 (IC50). Summed up:
(§1)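 Compounds were dispensed as 1000× DMSO stocks (10 mM top, 1:3 steps), then V617F JAK2 TF1 cells carrying a STAT3 or STAT5 luciferase reporter were added. After 18-20 h at 37 °C, ONE-glo reagent was added and luminescence measured.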
For orientation: In a reporter assay the amount or activity of a reporter protein is the signal.

The target of experiment [2] is T1, JAK2 JH2 WT (V536-D812) [W659A, W777A, F794H solubilizing mutations] (Homo sapiens, UniProt O60674, F794H/W659A/W777A).
T1 construct: **JAK2 JH2 WT (V536-D812) [W659A, W777A, F794H solubilizing mutations]; C-thrombin-avi-His6; thrombin cleavage site (C); His6 (C); purchased Biortus
Nature of the experiment: Surface Plasmon Resonance (SPR) binding assay, JAK2 JH2 domain. Summed up:
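Kinetics came from 1:1 fits of single-cycle runs at 20 °C: four 3-fold dilutions from 5 uM for JH1 or 500 nM for JH2, 60 s association, and 300 s or 1200 s dissociation respectively. Protein was freshly captured per compound in the presence of 10 uM stabilizer compound, with running buffer of pH 7.5 HEPES/NaCl/glycerol/DTT plus 2% DMSO.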

The test system of experiment [3] is TF1 JAK2 V617F STAT3 reporter. Nature of the experiment: Cellular TF1 STAT3 assay (luciferase reporter), JAK2 V617F. In kind it is cell-based. The conditions noted are these: read-out: Cell PD-TF1 JAK2 V617F STAT3 (IC50). In short, it runs like this:
as §1

In experiment [4] the target is T2, JAK2 JH1 WT (T842-G1132) (Homo sapiens, UniProt O60674).
T2 construct: *JAK2 JH1 WT (T842-G1132) N-His60-avi-TEV; His6 (N); TEV cleavage site (N); purchased Biortus
Description: Surface Plasmon Resonance (SPR) binding assay, JAK2 JH1 domain. The procedure: Selected compounds of the present disclosure were tested in a Surface Plasmon Resonance (SPR) Assay to measure their binding kinetics and affinity for proteins of interest.
Prepare buffer: 50 mM HEPES pH 7.5, 150 mM NaCl, 0.05% (v/v) Tween, and 10% (v/v) glycerol were combined and pH was adjusted to 7.5, then filtered. 5 mM DTT, was added, and buffer without DMSO was reserved for compound resuspension. 2% (v/v) DMSO was added for assay buffer, and separately 1% DMSO was used to make buffer for resuspending compounds.
Prepare compounds: Using a Bravo liquid handler, 99 μL of 1% (v/v) DMSO assay buffer was added to 1 μL compounds in DMSO.
Run 8K Method: Biotin CAPture (CAP) chip surface was regenerated prior to run by: Inserting CAP chip into Biacore 8K, prime machine with assay buffer with 2% (v/v) DMSO; Setting instrument temperature to 20° C.; Conditioning surface with NaOH/GdnHCl reagents from CAP chip kit (60 seconds, 10 μL/min); and Capturing oligo-Streptavidin (SA) reagent from CAP kit (600 seconds, 1 μL/min), expected capture ˜2500 RU. JAK2 JH1 or JH2 protein was immobilized by preparing a sample of 0.5 uM JH1 or 0.4 uM JH2 protein diluted in assay buffer without DMSO and supplemented with 10 uM of a selected compound of the invention as a stabilizer (370 seconds, 5 uL/min), expected capture ˜1000 RU. Remaining biotin sites on SA were blocked with 1 uM biotin (30 seconds, 20 uL/min), then equilibrated for 1800 seconds at 100 uL/min. Compounds being assayed were run in single cycle kinetics: 4 doses with a top concentration of 5 uM (JH1) or 500 nM (JH2), dilution factor of 3, at 20° C., for a contact time of 60 seconds, and a dissociation time of 300 seconds (JH1) or 1200 seconds (JH2), at a flow rate of 30 uL/min. The surface was completely regenerated after each compound is run, and JH1 or JH2 protein was immobilized fresh prior to each new compound. Data were fitted kinetically with 1:1 binding model using Biacore Insight Evaluation Software.

Where [5] appears, read: Homo sapiens, TF-1, TF1 cells, JAK2 V617F.

SMILES strings stand for the structures. Like-named read-outs stand apart in the source and are kept apart here.

T1 sequence (O60674 536-812 W659A/W777A/F794H): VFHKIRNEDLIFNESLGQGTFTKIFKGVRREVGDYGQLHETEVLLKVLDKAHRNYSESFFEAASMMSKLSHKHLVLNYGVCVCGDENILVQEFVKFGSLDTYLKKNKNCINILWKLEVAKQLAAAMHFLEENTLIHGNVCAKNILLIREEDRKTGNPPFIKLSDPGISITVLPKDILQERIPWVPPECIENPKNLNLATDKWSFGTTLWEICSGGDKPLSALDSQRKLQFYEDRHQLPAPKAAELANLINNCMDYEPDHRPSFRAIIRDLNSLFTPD
T2 sequence (O60674 842-1132): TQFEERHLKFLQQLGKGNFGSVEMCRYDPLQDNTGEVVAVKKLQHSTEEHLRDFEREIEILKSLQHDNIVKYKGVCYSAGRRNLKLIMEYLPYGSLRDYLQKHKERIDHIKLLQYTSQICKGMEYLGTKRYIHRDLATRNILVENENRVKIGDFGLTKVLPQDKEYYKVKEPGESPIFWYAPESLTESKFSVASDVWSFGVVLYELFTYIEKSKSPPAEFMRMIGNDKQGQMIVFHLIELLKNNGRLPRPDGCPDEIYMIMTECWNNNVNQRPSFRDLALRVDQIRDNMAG

As to `CNC(=O)c1nnc(NC(=O)C2CC2)cc1Nc1cccc(-c2cn(C3CN(Cc4cccc(C)n4)C3)nn2)c1OC` [Compound 151], the half-inhibitory concentration (IC50) in experiment [1] (TF1 JAK2 V617F) and in experiment [3] (TF1 JAK2 V617F) was 50 to 500 nM throughout. The dissociation constant Kd lay in the range of 0.01 to 10 nM in experiment [2] (SPR, JAK2 JH2 domain) and 500 to 5000 nM in experiment [4] (SPR, JAK2 JH1 domain).

As to `C#Cc1cccc(CN2CC(n3cc(-c4cccc(Nc5cc(NC(=O)C6CC6)nnc5C(=O)NC)c4OC)cn3)C2)n1` [Compound 152], the IC50 in experiment [1] (TF1 JAK2 V617F) and in experiment [3] (TF1 JAK2 V617F) was 50 to 500 nM in each case. Besides, the Kd in experiment [2] (SPR, JAK2 JH2 domain) is 0.01 to 10 nM; in experiment [4] (SPR, JAK2 JH1 domain), 500 to 5000 nM.

For `CNC(=O)c1nnc(NC(=O)C2CC2)cc1Nc1cc(F)cc(-c2cnn(C3CN(Cc4ccn(C)n4)C3)c2)c1OC` [Compound 155], the concentration for half-maximal inhibition (IC50) in experiment [1] (TF1 JAK2 V617F) and in experiment [3] (TF1 JAK2 V617F) was 500 to 5000 nM throughout. In addition, the dissociation constant Kd in experiment [2] (SPR, JAK2 JH2 domain) lay within 0.01 to 10 nM; in experiment [4] (SPR, JAK2 JH1 domain), 5000 to 100000 nM.

Regarding `CNC(=O)c1nnc(NC(=O)C2CC2)cc1Nc1cccc(-c2nnc(C3CN(Cc4ccccn4)C3)o2)c1OC` [Compound 156], the IC50 in experiment [1] (TF1 JAK2 V617F) and in experiment [3] (TF1 JAK2 V617F) was 5000 to 100000 nM in each case. The Kd in experiment [2] (SPR, JAK2 JH2 domain) lay within 10 to 50 nM; in experiment [4] (SPR, JAK2 JH1 domain) it was 5000 to 100000 nM.

Take `CNC(=O)c1nnc(NC(=O)C2CC2)cc1Nc1cccc(-c2nnc(C3CN(Cc4cccc(C)n4)C3)o2)c1OC` [Compound 157]: the IC50 in experiment [1] (TF1 JAK2 V617F) and in experiment [3] (TF1 JAK2 V617F) was 5000 to 100000 nM in each case. The equilibrium dissociation constant (Kd) lay in the range of 0.01 to 10 nM in experiment [2] (SPR, JAK2 JH2 domain) and 5000 to 100000 nM in experiment [4] (SPR, JAK2 JH1 domain).

As for `CNC(=O)c1nnc(NC(=O)C2CC2)cc1Nc1cccc(-c2ccc(C(=O)N(C)Cc3cc(C(F)F)ccn3)nc2)c1OC` [Compound 158], the IC50 in experiment [1] (TF1 JAK2 V617F) and in experiment [3] (TF1 JAK2 V617F) was 50 to 500 nM each time. Also, the Kd in experiment [2] (SPR, JAK2 JH2 domain) lay in the range of 0.01 to 10 nM; in experiment [4] (SPR, JAK2 JH1 domain) it was 5000 to 100000 nM.

As to `CNC(=O)c1nnc(NC(=O)C2CC2)cc1Nc1cccc(-c2ccc(C(=O)N(Cc3cc(C#N)ccn3)OC)nc2)c1OC` [Compound 159], the IC50 in experiment [1] (TF1 JAK2 V617F) and in experiment [3] (TF1 JAK2 V617F) was 50 to 500 nM throughout. Besides, the Kd is 0.01 to 10 nM in experiment [2] (SPR, JAK2 JH2 domain) and 5000 to 100000 nM in experiment [4] (SPR, JAK2 JH1 domain).

In the case of `COc1c(Nc2cc(NC(=O)C3CC3)nnc2C(N)=O)cccc1-c1ccc(C(=O)N(C)Cc2cc(C#N)ccn2)nc1` [Compound 220], the half-maximal inhibitory concentration (IC50) in experiment [1] (setting [5]) and in experiment [3] (setting [5]) was 50 to 500 nM in each case. Also, the dissociation constant Kd was 0.01 to 10 nM in experiment [2] and 50 to 500 nM in experiment [4].

Take `CNC(=O)c1nnc(NC(=O)C2CC2)cc1Nc1cccc(-c2cnn(C3CN(C(C)=O)C3)c2)c1OC` [Compound 301]: the IC50 in experiment [1] (setting [5]) and in experiment [3] (setting [5]) was 5000 to 100000 nM each time. For the same compound, the values for the Kd in experiment [2] and in experiment [4] were 50 to 500 nM and 5000 to 100000 nM, respectively.

`CNC(=O)c1nnc(NC(=O)C2CC2)cc1Nc1cccc(-c2cn(C3CN(Cc4cccc(C#N)n4)C3)nc2COC)c1OC` [Compound 328]: the IC50 in experiment [1] (setting [5]) and in experiment [3] (setting [5]) was 50 to 500 nM throughout. Further, the Kd in experiment [2] lay within 0.01 to 10 nM; in experiment [4], 500 to 5000 nM.

For `CNC(=O)c1nnc(NC(=O)C2CC2)cc1Nc1cccc(-c2cn(C3CN(Cc4cccc(C#N)n4)C3)nc2CO)c1OC` [Compound 329], the IC50 in experiment [1] (setting [5]) and in experiment [3] (setting [5]) was 500 to 5000 nM throughout. The Kd in experiment [2] is 0.01 to 10 nM; in experiment [4], 500 to 5000 nM.

One may read the IC50 as the midpoint of a concentration-inhibition curve. In general, Kd refers to the equilibrium constant for the complex coming apart.

(Values after patent US20240368122A1, “JAK2 INHIBITORS AND METHODS OF USE THEREOF” (RELAY THERAPEUTICS, INC., priority 2021, published 2024).)
